The pIC50 is −log10 of the IC50, conventionally taken in molar units.

We go through four molecules from patent US20210069083A1, “METHOD FOR IMPROVING SKIN WHITENING POWER OF A SKIN WHITENING AGENT” (Symrise AG, priority 2013, published 2021).

The assay relates to B16V mouse melanoma cells. Briefly: Depigmentation effect on melanoma cell cultures (inhibition of pigmentation / melanin inhibition). The note with it: for pIC50: Mus musculus, B16V cells, 0.3 mM tyrosine and 10 nM α-MSH, 96 h incubation, absorption at 400 nm. It is filed as cell-based. The method, then:
B16V mouse melanoma cells are disseminated in a 96-well micro-titre plate in a concentration of 7.5×10^3 cells/well. After cultivation for 24 h at 37° C. and 5% CO2 in RPMI medium, enriched with 10% foetal calf serum, various concentrations of the test substances and 0.3 mM tyrosine and 10 nM α-MSH (α-melanocyte stimulating hormone) are added and incubated for a further 96 h. The maximum concentration of the test substances used corresponds to 0.1 times the value of the IC20 value of the cytotoxicity assay. Only tyrosine and α-MSH are added to the controls. After incubation, sodium hydroxide solution (final concentrations: 1 M) is added to the culture medium and the absorption (A) is measured after 3 h at 400 nm.
The inhibition of pigmentation in the presence of the test compounds was calculated using the following equation:
Inhibition of pigmentation (%)=100−[(Atest compound/Acontrol)×100]
wherein Atest compound=absorption of the wells with test substance and with cells Acontrol=absorption of the wells without test substance, but with cells
From the inhibition of pigmentation (%) in a series of dilutions of test compounds, the IC50 for each test compound is calculated. This is the concentration of a test compound at which pigmentation is inhibited by 50%. The results are compiled in Table 1:
Experimental procedure as described in Example 1. SymWhite® 377 stands for Phenylethyl resorcinol.
The Synergy Index (SI)^1 is calculated according to Kull's equation as follows: […]
with A: individual result of substance A B: individual result of substance B C: result of the mixture of A and B D: percentage of substance Ain the mixture E: percentage of substance B in the mixture ^1 The calculation of the synergy index (SI-value) was carried out on the basis of following literature: D. C. Steinberg, Cosmetics & Toiletries 2000, 115 (11), 59-62 and F. C. Kull et al., Applied Microbiology 1961, 9, 538-541.
In contrast to the given examples in the literature, in which reduced values for A, B and C (i.e. the minimal concentration of inhibition in antimicrobial tests) mean better activity and consequently SI values <1 document a synergistic effect, increasing values of the here analysed melanin inhibition mean better efficacy. According to Kull's equation the evidence for a synergistic effect results for SI values >1. In the experiments with Sclareolide and SyrnWhite® 377 the calculated SI values obviously exceed 1 (experiments 1 and 2). From this it follows that a composition of Sclareolide and SymWhite® 377 constitutes a potent synergistic combination of active ingredients.

Molecules are shown by their SMILES. pIC50: −log10 of the molar value.

Turning to `CC(c1ccccc1)c1ccc(O)cc1O` (stereo not shown) [SymWhite ® 377, 4-(1-phenylethyl)1,3-dihydroxybenzene], the Melanin inhibition reads like this: (Ex. 1, Kull variable B, conc. 1.6 μm) 59.8%; (Ex. 2, Kull variable B, conc. 1.6 μm) 55.9%.

Turning to `O=c1cc(CO)occ1O` [Kojic acid, 5-hydroxy-2-hydroxymethyl-4-pyranone], the pIC50 is 3.34.

As to `OC[C@H]1O[C@@H](Oc2ccc(O)cc2)[C@H](O)[C@@H](O)[C@@H]1O` [beta-Arbutin], the pIC50 was 4.17.

Take `CC1(C)CCC[C@]2(C)C3CC(=O)O[C@]3(C)CC[C@@H]12` (stereo partly drawn) [Sclareolide, (3aR,5aS,9aS,9bR)-decahydro-3a,6,6,9a-tetramethyl-naphtha[2,1-b]furan-2(1H)-one]: the negative logarithm of the IC50 (pIC50) was 4.99. Under “Ex. 1, Kull variable A, conc. 3.2 μm”, the Melanin inhibition turned out to be 50.0%. Also, under “Ex. 2, Kull variable A, conc. 3.2 μm”, the Melanin inhibition was 35.8%.
